Test results as given in PMC4198181, “Gold(I) Complexes of 9-Deazahypoxanthine as Selective Antitumor and Anti-Inflammatory Agents” (PLoS ONE, 2014).

Columns and labels:
[1] = test system: TNF-α mRNA; assay: TNF-α gene expression by RT-qPCR in LPS-stimulated THP-1 macrophages; format: cell-based, human; conditions: 300 nM, 2 h after LPS, normalised to β-actin
Experimental: (§1) For the determination of biological activity, we used the human monocytic leukaemia cell line THP-1 (ECACC, Salisbury, UK). The cells were cultivated at 37°C in the RPMI 1640 medium supplemented with 2 mM L-glutamine, 10% FBS, 100 U/mL of penicillin and 100 µg/mL of streptomycin in a humidified atmosphere containing 5% CO2. Stabilized cells (3rd–15th passage) were split into microtitration plates to get a concentration of 500 000 cells/mL and the differentiation to macrophages was induced by phorbol myristate acetate (PMA) dissolved in dimethyl sulfoxide (DMSO) at the final concentration of 50 ng/ml, and the cells were incubated for 24 h. In comparison with monocytes, differentiated macrophages tend to adhere to the bottoms of the cultivation plates. For next 24 h the cells were incubated with a fresh complete RPMI medium, i.e. containing antibiotics and FBS, without PMA. The medium was then aspirated, and the cells were washed with PBS and cultivated for next 24 hours in serum-free RPMI 1640 medium. These prepared macrophages were used for the detection of inflammatory response.
(§2) In the order to evaluate the expression of TNF-α, IL-1β, and β-actin mRNA, total RNA was isolated directly from the LPS-stimulated THP-1 cells. THP-1 macrophages were pretreated with compounds 2, 5, and Auranofin at the concentration of 300 nM or the vehicle (0.1% DMSO) only. After 1 h of the incubation, the inflammatory response was induced by LPS [except for the control cells (CTRL)]. After 2 h of the incubation with LPS, the medium was aspirated and the total RNA was isolated directly from the cells in cultivation plates using a RealTime Ready Cell Lysis Kit (Roche), according to the manufacturer's instructions.
(§3) The gene expression was quantified by two-step reverse-transcription quantitative (real-time) PCR (RT-qPCR). The reverse transcription step was performed by Transcriptor Universal cDNA Master using cell lysate as a template. […] The results were normalized to the amount of ROX reference dye, and the change in gene expression was determined by the 2^−ΔΔCT method. […]

[2] = test system: THP-1 monocytic leukaemia cells; assay: WST-1 in vitro cytotoxicity, THP-1; format: cell-based, human; conditions: 24 h treatment, WST-1, 0.16–10.00 µM; read-out: IC50±S.E., THP-1
Experimental: Before the in vitro anti-inflammatory testing, in vitro cytotoxicity on human monocytic leukaemia cells (THP-1, ECACC no. 88081201) was determined using the WST-1 assay. The THP-1 cells (floating monocytes, 500 000 cells/mL) were incubated in 100 µL of the serum-free RPMI 1640 medium and seeded into 96-well plates in triplicate at 37°C. Measurements were taken 24 h after the treatment with the tested compounds dissolved in 0.1% DMSO in the concentration range of 0.16–10.00 µM. Viability was determined by the WST-1 test according to the manufacturer's manual. The amount of the formed formazan (which correlates to the number of metabolically active cells in the culture) was calculated as a percentage of the control cells, which were treated only with 0.1% DMSO and was set-up as 100%. The IC50 values of the tested compounds were calculated from the obtained data. The WST-1 assay was performed spectrophotometrically at 440 nm (FLUOstar Omega, BMG Labtech).
The cytotoxicity data were expressed as the percentage of viability, where 100% represented the treatments with vehicle (0.1% DMF or 0.1% DMSO). The cytotoxicity data from the cancer cell lines were acquired from three independent experiments (conducted in triplicate) using cells from different passages. The IC50 values were calculated from viability curves. The results are presented as arithmetic means±standard error of the mean (S.E.). The significance of the differences between the results was assessed by the ANOVA analysis with p<0.05 considered to be significant (QC Expert 3.2, Statistical software, TriloByte Ltd., Pardubice, Czech Republic).

[3] = test system: IκB-α degradation (NF-κB signalling pathway); assay: LPS-induced IκB-α degradation (Western blot) in THP-1 macrophages; format: cell-based, human; conditions: 300 nM, 30 min after LPS
Experimental: Macrophage-like THP-1 cells were pretreated with the tested compounds and stimulated by LPS as was describe above. Thirty minutes after the addition of LPS, the medium was aspirated and cells were washed by cold phosphate buffer solution (PBS). Subsequently, the cells were collected using the lysis buffer [50 mM Tris-HCl pH 7.5, 1 mM EGTA, 1 mM EDTA, 1 mM sodium orthovanadate, 50 mM sodium fluoride, 5 mM sodium pyrophosphate, 270 mM sucrose, 0.1% (v/v) Triton X-100, and cOmplete Protease Inhibitor Cocktail (Roche, Germany)] and scraper. The lysis of cells was facilitated by a short (≈30 s) incubation in the ultrasonic water bath. The protein concentration was determined according to Bradford's method. For protein separation, 30 µg of protein was loaded onto the 12% polyacrylamide gel. […] The membranes were incubated with the primary anti-IκB-α antibody at the concentration ratio of 1∶500, or with the primary anti-β-actin at the concentration ration of 1∶5 000 at 4°C for 16 h. After washing, the secondary anti-mouse IgG antibody diluted 1∶2 000 was applied on the membranes and incubated at laboratory temperature (22°C) for 1 h. The amount of the bound secondary antibody was detected colorimetrically by an Opti-4CN Kit according to the manufacturer's manual.

[4] = test system: IL-1β mRNA; assay: IL-1β gene expression by RT-qPCR in LPS-stimulated THP-1 macrophages; format: cell-based, human; conditions: 300 nM, 2 h after LPS, normalised to β-actin
Experimental: as §1, §2, §3

[5] = test system: human cancer cell lines (MCF7, HOS, A549, G361, HeLa, A2780, A2780R, 22Rv1); assay: MTT in vitro cytotoxicity, summary over the panel of human cancer cell lines; format: cell-based; conditions: 24 h, MTT; HAuCl4 except on G361; read-out: IC50 against all the cancer cell lines tested (inactive up to the stated concentration)
Experimental: In vitro cytotoxic activity was determined by the MTT assay in human breast adenocarcinoma (MCF7; ECACC no. 86012803), human osteosarcoma (HOS; ECACC no. 87070202), lung carcinoma (A549; ECACC no. 86012804), malignant melanoma (G361; ECACC no. 88030401), cervix epitheloid carcinoma (HeLa; ECACC no. 93021013), ovarian carcinoma (A2780; ECACC no. 93112519), cisplatin-resistant ovarian carcinoma (A2780R; ECACC no. 93112517) and prostate carcinoma (22Rv1; ECACC no 105092802) cancer cell lines, purchased from European Collection of Cell Cultures (ECACC). The cells were cultured according to the ECACC instructions and they were maintained at 37°C and 5% CO2 in a humidified incubator. The primary culture of human hepatocytes (HEP220, batch number HEP220819) was obtained from Biopredic International (France). The culture medium was Williams and HAM's F-12 (1∶1) supplemented with penicillin, streptomycin, ascorbic acid, linoleic acid, holo-transferin, ethanolamine, glucagon, insulin, dexamethasone, pyruvate, glucose, glutamine, amphotericin. The medium was enriched for plating with 2% foetal calf serum (v/v). The medium was exchanged for a serum-free medium the day after and the culture was stabilized for additional 24 h. Thereafter, the cells were ready for treatments. The cultures were maintained at 37°C and 5% CO2 in a humidified incubator. The cells were treated with complexes 1–5 (at the concentration levels of 0.01, 0.1, 1.0, 5.0, 25.0, and 50.0 µM), starting compounds e.g. HL1–5, AuCl, and cisplatin (applied up to 50 µM) for 24 h, using multi-well culture plates of 96 wells. […]
The cytotoxicity data were expressed as the percentage of viability, where 100% represented the treatments with vehicle (0.1% DMF or 0.1% DMSO). […] The IC50 values were calculated from viability curves. […] The significance of the differences between the results was assessed by the ANOVA analysis with p<0.05 considered to be significant (QC Expert 3.2, Statistical software, TriloByte Ltd., Pardubice, Czech Republic).

[6] = test system: G361 malignant melanoma cells; assay: MTT in vitro cytotoxicity, G361; format: cell-based, human; conditions: 24 h treatment, read-out: IC50±S.E., G361
Experimental: In vitro cytotoxic activity was determined by the MTT assay in human breast adenocarcinoma (MCF7; ECACC no. 86012803), human osteosarcoma (HOS; ECACC no. 87070202), lung carcinoma (A549; ECACC no. 86012804), malignant melanoma (G361; ECACC no. 88030401), cervix epitheloid carcinoma (HeLa; ECACC no. 93021013), ovarian carcinoma (A2780; ECACC no. 93112519), cisplatin-resistant ovarian carcinoma (A2780R; […] ECACC no 105092802) cancer cell lines, purchased from European Collection of Cell Cultures (ECACC). […] The primary culture of human hepatocytes (HEP220, batch number HEP220819) was obtained from Biopredic International (France). The culture medium was Williams and HAM's F-12 (1∶1) supplemented with penicillin, streptomycin, ascorbic acid, linoleic acid, holo-transferin, ethanolamine, glucagon, insulin, dexamethasone, pyruvate, glucose, glutamine, amphotericin. The medium was enriched for plating with 2% foetal calf serum (v/v). The medium was exchanged for a serum-free medium the day after and the culture was stabilized for additional 24 h. Thereafter, the cells were ready for treatments. […] The MTT assay was performed spectrophotometrically at 540 nm (TECAN, Schoeller Instruments LLC). The cytotoxicity data were expressed as the percentage of viability, where 100% represented the treatments with vehicle (0.1% DMF or 0.1% DMSO). The cytotoxicity data from the cancer cell lines were acquired from three independent experiments (conducted in triplicate) using cells from different passages. The IC50 values were calculated from viability curves. The results are presented as arithmetic means±standard error of the mean (S.E.).

[7] = test system: TNF-α secretion in LPS-stimulated macrophage-like THP-1 cells; assay: LPS-induced TNF-α secretion in THP-1 macrophages (ELISA); format: cell-based, human; conditions: 300 nM, 1 h pretreatment, 24 h after LPS
Experimental: as §1
(§4) Differentiated macrophages were pretreated with 300 nM solutions of the tested complexes, HLn, AuCl, [AuCl(PPh3)], PPh3 and Auranofin dissolved in DMSO (the final DMSO concentration was 0.1%) and with 0.1% DMSO solution itself (vehicle) for 1 h; the given concentrations of the tested compounds lack the cytotoxic effect (cell viability >94%) based on the results of WST-1 test. The inflammatory response in pretreated macrophages was triggered by the addition of 1.0 µg/mL lipopolysaccharide (LPS) dissolved in water, while the control cells (CTRL) remained without the LPS treatment.
(§5) Macrophages, which were pretreated with the tested compounds (complexes 1–5, HLn, AuCl, [AuCl(PPh3)], PPh3 and Auranofin) for 1 h, were incubated with LPS for next 24 h. After this period, the medium was collected and the concentration of TNF-α, and IL-1β was determined by the Instant ELISA Kit according to the manufactures' manual.
(§6) The statistically significant differences between individual groups during anti- inflammatory testing were evaluated using a one-way ANOVA test for statistical analysis, followed by Tukey's post-hoc test for multiple comparisons. GraphPad Prism 5.02 (GraphPad Software Inc., San Diego, CA, USA) was used to perform the analysis. The results are presented as arithmetic means±S.E. values.

[8] = test system: IL-1β secretion in LPS-stimulated macrophage-like THP-1 cells; assay: LPS-induced IL-1β secretion in THP-1 macrophages (ELISA); format: cell-based, human; conditions: 300 nM, 1 h pretreatment, 24 h after LPS
Experimental: as §1, §4, §5, §6

Compound	effect on TNF-α mRNA transcription [1]	IC50 [2] [µM]	effect on LPS-induced IκB degradation [3]	effect on IL-1β mRNA transcription [4]	IC50 [5] [µM]	IC50 [6] [µM]	effect on LPS-induced TNF-α secretion [7]	effect on LPS-induced IL-1β secretion [8]
CC[PH](CC)(CC)[Au][S][C@@H]1O[C@H](COC(C)=O)[C@@H](OC(C)=O)[C@H](OC(C)=O)[C@H]1OC(C)=O [Auranofin, triethylphosphine-(2,3,4,6-tetra-O-acetyl-β-D-thiopyranosato)gold(I), reference compound]	significantly reduce the transcription	0.9 ± 0.1	block moderately the IκB degradation	significantly reduce the transcription				
[Cl][Au-]([Cl])([Cl])[Cl].[H+] [HAuCl4, reference compound]					> 50	38.1 ± 2.3		
[Au+].[Cl-] [AuCl]					> 50		none of the reference compounds, such as AuCl, HLn, [AuCl(PPh3)] and PPh3, exhibited any expected effect	decreased the production of IL-1β by a manner comparable to free ligands
